Source: patent publication US6670363B1, “Azole compounds as therapeutic agents for fungal infections” (Ranbaxy Laboratories Limited, priority 2000, dated 2003)
Converted amounts (≈) assume the structure as drawn.

Legend:
Type in all cases: cell-based
[1] = tested on: Histoplasma capsulatum
[2] = tested on: Candida; assay: In vitro MIC, NCCLS M27A, Candida species; set-up: MIC, Candida albicans 1.549 / MIC, Candida albicans Y-01-19 / MIC, C. krusei 766-1 / MIC, C. krusei Q. C / MIC, Candida tropicalis ATCC / MIC, C. glabrata 90030: unit not given beside the values; MIC, Candida albicans A 26 / MIC, C. parapsilosis Q. C.: unit not given here; conditions: for MIC, C. glabrata 90030: C. glabrata strain 90030; for MIC, C. krusei 766-1: C. krusei strain 766-1; for MIC, C. krusei Q. C: C. krusei strain Q. C; for MIC, C. parapsilosis Q. C.: C. parapsilosis strain Q. C.; for MIC, Candida albicans 1.549: Candida albicans strain 1.549; for MIC, Candida albicans A 26: Candida albicans strain A 26; for MIC, Candida albicans Y-01-19: Candida albicans strain Y-01-19
[3] = tested on: A. fumigatus s 1008; assay: In vitro MIC, NCCLS M38P broth method (RPMI 1640/MOPS pH7), Aspergillus fumigatus; conditions: for MIC, A. fumigatus 1008: A. fumigatus strain 1008
[4] = tested on: Cryptococcus neoformans; assay: In vitro MIC, NCCLS M27A, Cryptococcus neoformans; set-up: MIC, C. neoformans I: unit not given beside the values; MIC, C. neoformans M 106: unit not given here; conditions: for MIC, C. neoformans I: C. neoformans strain I; for MIC, C. neoformans M 106: C. neoformans strain M 106

Row | Molecule | MIC, H. capsulatum [1] [µg/mL] | MIC, C. glabrata 90030 [2] | MIC, C. krusei 766-1 [2] | MIC, C. krusei Q. C [2] | MIC, C. parapsilosis Q. C. [2] | MIC, Candida albicans 1.549 [2] | MIC, Candida albicans A 26 [2] | MIC, Candida albicans Y-01-19 [2] | MIC, Candida tropicalis ATCC [2] | MIC, A. fumigatus 1008 [3] | MIC, C. neoformans I [4] | MIC, C. neoformans M 106 [4] | MIC (υg/ml) (A. fumigatus s 1008) [3] [µg/mL]
1 | Cc1ccc(Cl)cc1N1CCN(c2ccc(-n3cnn([C@H](C)[C@](O)(Cn4cncn4)c4ccc(F)cc4F)c3=O)cc2)CC1 [Compound 21, 2-{[1R2R/1S2S]-2-(2,4-Difluorophenyl)-2-hydroxy-1-methyl-3-(1H-1,2,4-triazol-1-yl)propyl}-4-{4-[4-(5-chloro-2-methylphenyl)-1-piperazinyl]phenyl}-3-(2H,4H)-1,2,4-triazolone] | 0.12 (≈ 0.193 µM) | 0.50 | 0.50 | 0.25 | 0.06 | 0.25 | <0.03 | 0.25 | <0.03 | 1.00 | <0.03 | <0.03 | –
2 | Cc1ccc(N2CCN(c3ccc(-n4cnn([C@H](C)[C@@](O)(Cn5cncn5)c5ccc(F)cc5F)c4=O)cc3)CC2)cc1C [Compound 24, 2-{[1R2S/1S2R]-2-(2,4-Difluorophenyl)-2-hydroxy-1-methyl-3-(1H-1,2,4-triazol-1-yl)propyl}-4-{4-[4-(3,4-dimethylphenyl)-1-piperazinyl]phenyl}-3-(2H,4H)-1,2,4-triazolone] | 0.25 (≈ 0.416 µM) | 2.00 | >16 | 16.0 | 0.25 | 2.00 | <0.03 | 16.00 | <0.03 | >16 | 0.50 | 1.00 | –
3 | C[C@@H](n1ncn(-c2ccc(N3CCN(c4ccc([N+](=O)[O-])cc4[N+](=O)[O-])CC3)cc2)c1=O)[C@](O)(Cn1cncn1)c1ccc(F)cc1F [Compound 3, 2-{[1R2R/1S2S]-2-(2,4-Difluorophenyl)-2-hydroxy-1-methyl-3-(1H-1,2,4-triazol-1-yl)propyl}-4-{4-[4-(2,4-dinitrophenyl)-1-piperazinyl]phenyl}-3-(2H,4H)-1,2,4-triazolone] | < 0.03 | 0.25 | 1.00 | 0.50 | <0.03 | 0.12 | <0.03 | 0.50 | <0.03 | 0.25 | <0.03 | <0.03 | –
4 | C[C@@H](n1ncn(-c2ccc(N3CCN(c4ccc(F)c(Cl)c4)CC3)cc2)c1=O)[C@@](O)(Cn1cncn1)c1ccc(F)cc1F [Compound 16, 2-{[1R2S/1S2R]-2-(2,4-Difluorophenyl)-2-hydroxy-1-methyl-3-(1H-1,2,4-triazol-1-yl)propyl}-4-{4-[4-(3-chloro-4-fluorophenyl)-1-piperazinyl]phenyl}-3-(2H,4H)-1,2,4-triazolone] | 0.5 (≈ 0.8 µM) | 0.50 | >16 | 1.00 | 0.06 | 4.00 | <0.03 | 1.00 | <0.03 | >16 | 0.12 | 0.12 | –
5 | COc1ccc(N2CCN(c3ccc(-n4cnn([C@H](C)[C@](O)(Cn5cncn5)c5ccc(F)cc5F)c4=O)cc3)CC2)cc1 [Compound 13, 2-{[1R2R/1S2S]-2-(2,4-Difluorophenyl)-2-hydroxy-1-methyl-3-(1H-1,2,4-triazol-1-yl)propyl}-4-{4-[4-(4-methoxyphenyl)-1-piperazinyl]phenyl}-3-(2H,4H)-1,2,4-triazolone] | 0.06 (≈ 0.0996 µM) | 0.50 | 0.50 | 0.12 | <0.03 | 0.12 | <0.03 | 0.25 | <0.03 | 0.25 | <0.03 | <0.03 | –
6 | Cc1ccc(Cl)cc1N1CCN(c2ccc(-n3cnn([C@H](C)[C@@](O)(Cn4cncn4)c4ccc(F)cc4F)c3=O)cc2)CC1 [Compound 22, 2-{[1R2S/1S2R]-2-(2,4-Difluorophenyl)-2-hydroxy-1-methyl-3-(1H-1,2,4-triazol-1-yl)propyl}-4-{4-[4-(5-chloro-2-methylphenyl)-1-piperazinyl]phenyl}-3-(2H,4H)-1,2,4-triazolone] | > 16 | 1.00 | 8.00 | 1.00 | 0.25 | 2.00 | <0.03 | 1.00 | <0.03 | >16 | 0.12 | 0.06 | –
7 | C[C@@H](n1ncn(-c2ccc(N3CCN(c4ccc(Cl)c(Cl)c4)CC3)cc2)c1=O)[C@@](O)(Cn1cncn1)c1ccc(F)cc1F [Compound 8, 2-{[1R2S/1S2R]-2-(2,4-Difluorophenyl)-2-hydroxy-1-methyl-3-(1H-1,2,4-triazol-1-yl)propyl}-4-{4-[4-(3,4-dichlorophenyl)-1-piperazinyl]phenyl}-3-(2H,4H)-1,2,4-triazolone] | 2 (≈ 3.12 µM) | >16 | >16 | >16 | 1.00 | >16 | <0.03 | >16 | >16 | >16 | 16.00 | 16.00 | –
8 | Cc1nn([C@H](C)[C@@](O)(Cn2cncn2)c2ccc(F)cc2F)c(=O)n1-c1ccc(N2CCN(c3ccc(Cl)cc3Cl)CC2)cc1 [Compound 34, 2-{[1R2S/1S2R]-2-(2,4-Difluorophenyl)-2-hydroxy-1-methyl-3-(1H-1,2,4-triazol-1-yl)propyl}-4-{4-[4-(2,4-dichlorophenyl)-1-piperazinyl]phenyl}-3-(2H,4H)-5-methyl-1,2,4-triazolone] | 0.12 (≈ 0.183 µM) | 0.50 | 2.00 | 1.00 | 0.25 | 1.00 | <0.03 | 1.00 | <0.03 | – | 0.25 | <0.03 | –
9 | O=C(Nc1ccc(Cl)cc1)NN1CCN(c2ccc(OCC(O)(Cn3cncn3)c3ccc(F)cc3F)cc2)CC1 (stereo not shown) [Compound 67, 3-{4-[4-(4-Chlorophenylureido)piperazinyl]phenoxy}-2-(2,4-difluorophenyl)-1-(1H-1,2,4-triazol-1-yl)-propan-2-ol] | – | – | – | – | – | – | – | – | – | – | – | – | 6.25 (≈ 10.7 µM)
10 | COc1ccc(NC(=O)NN2CCN(c3ccc(OCC(O)(Cn4cncn4)c4ccc(F)cc4F)cc3)CC2)cc1 (stereo not shown) [Compound 71, 3-{4-[4-(4-Methoxyphenylureido)piperazinyl]phenoxy}-2-(2,4-difluorophenyl)-1-(1H-1,2,4-triazol-1-yl)-propan-2-ol] | – | – | – | – | – | – | – | – | – | – | – | – | >12.5
11 | OC(COc1ccc(N2CCN(NC(=S)Nc3cccc4ccccc34)CC2)cc1)(Cn1cncn1)c1ccc(F)cc1F (stereo not shown) [Compound 68, 3-{4-[4-(1-Napthylthioureido)piperazinyl]phenoxy}-2-(2,4-difluorophenyl)-1-(1H-1,2,4-triazol-1-yl)-propan-2-ol] | – | – | – | – | – | – | – | – | – | – | – | – | >12.5
12 | O=C(Nc1ccccc1)NN1CCN(c2ccc(OCC(O)(Cn3cncn3)c3ccc(F)cc3F)cc2)CC1 (stereo not shown) [Compound 80, 3-{4-[4-(Phenylureido)-piperazinyl]phenoxy}-2-(2,4-difluorophenyl)-1-(1H-1,2,4-triazol-1-yl)-propan-2-ol] | – | – | – | – | – | – | – | – | – | – | – | – | >12.5
13 | O=C(Nc1cccc2ccccc12)NN1CCN(c2ccc(OCC(O)(Cn3cncn3)c3ccc(F)cc3F)cc2)CC1 (stereo not shown) [Compound 69, 3-{4-[4-(1-Napthylureido)piperazinyl]phenoxy}-2-(2,4-difluorophenyl)-1-(1H-1,2,4-triazol-1-yl)-propan-2-ol] | – | – | – | – | – | – | – | – | – | – | – | – | >12.5
14 | 3-{4-[4-(4-chlorophenyl-N-ethylureido)-piperazinyl]-phenoxy}-2-(2,4-difluorophenyl)-1-(1H-1,2,4-triazolyl)-propan-3-amino-2-ol [Compound 73] | – | – | – | – | – | – | – | – | – | – | – | – | >12.5
15 | O=C(Nc1ccc(Cl)cc1)NN1CCN(c2ccc(-n3cnn(CC(O)(Cn4cncn4)c4ccc(F)cc4F)c3=O)cc2)CC1 (stereo not shown) [Compound 91, 2-[2-(2,4-Difluorophenyl)-2-hydroxy-3-(1H-1,2,4-triazol-1-yl)propyl]-4-{4-[4-(4-chlorophenyluredio)-1-piperazinyl]phenyl}-3-(2H,4H)-1,2,4-triazolone] | – | – | – | – | – | – | – | – | – | – | – | – | >12.5
16 | CC(Oc1ccc(N2CCN(NC(=O)Nc3ccc(C(F)(F)F)cc3)CC2)cc1)C(O)(Cn1cncn1)c1ccc(F)cc1F (stereo not shown) [Compound 79, 1-{4-[4-(4-Trifluoromethylphenylureido)piperazinyl]phenoxy}-2-(2,4-difluorophenyl)-1-methyl-3-(1H-1,2,4-triazol-1-yl)-propan-2-ol] | – | – | – | – | – | – | – | – | – | – | – | – | 8 (≈ 12.7 µM)
